Reference: patent EP1094724B1, “USE OF A PHENOL OXIDISING ENZYME IN THE TREATMENT OF TOBACCO” (priority 1998, dated 2000)

Columns and labels:
[1] = molecular target: T1, Trametes villosa laccase (TvL) (Trametes villosa, UniProt Q99044); assay: Laccase TvL treatment of tobacco extract, HPLC analysis of phenolic compounds (peak area); assay type: biochemical; conditions: for % Remaining (peak area) after various treatment times: intensive, submerse aeration; for % Remaining (peak area) after 75 minutes / % Remaining (peak area) after 240 minutes: 1.6 µg/ml TvL, ambient temperature (approximately 20°C); for % Remaining (peak area) after 75 minutes / % Remaining (peak area) after 240 minutes / reduction in the area of the peaks (HPLC) following enzyme treatment: surface aeration; for reduction in the area of the peaks (HPLC) following enzyme treatment: tobacco extract, approximately 1.6 µg/ml TvL, pH 5.5 and 55°C
T1 construct: purchased Novo Nordisk A/S
T1 sequence (Q99044 22-520): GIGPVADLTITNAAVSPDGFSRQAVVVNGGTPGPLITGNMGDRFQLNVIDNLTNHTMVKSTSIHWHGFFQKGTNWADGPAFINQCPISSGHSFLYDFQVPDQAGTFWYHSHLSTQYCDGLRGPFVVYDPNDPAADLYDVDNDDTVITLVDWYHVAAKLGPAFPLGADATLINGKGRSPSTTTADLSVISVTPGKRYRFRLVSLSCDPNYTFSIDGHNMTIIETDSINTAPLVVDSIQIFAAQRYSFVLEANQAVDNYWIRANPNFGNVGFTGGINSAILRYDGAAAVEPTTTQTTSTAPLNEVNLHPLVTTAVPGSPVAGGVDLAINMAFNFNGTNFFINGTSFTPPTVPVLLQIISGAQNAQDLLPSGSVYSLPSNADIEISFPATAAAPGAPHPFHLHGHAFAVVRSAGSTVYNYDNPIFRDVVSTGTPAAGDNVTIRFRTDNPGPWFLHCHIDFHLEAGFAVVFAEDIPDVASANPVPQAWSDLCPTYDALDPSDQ
Description: The content of phenolic compounds is analysed by HPLC according to the procedure described below: • Liquid chromatographic system: E.g. Shimadzu SCL-6B System Controller, and two LC-6A Liquid Chromatograph (pumps) or Waters model 600 E • Injector: Shimadzu SIL 6B Autoinjector or Waters 715 Ultra Wisp. UV detector: Shimadzu SPD-6A Photodiode Array UV-VIS detector or Waters Model 481 • Software: CLASS LC10 / CLASS-MXA or Maxima 820 • Column: Supelcosil™ LC-18 25 cm x 4.6 mm (Supelco, #5-8298) or µ Bondapack C198 stainless steel column, 30 cm x 4 mm i.d., 10 µm particle size. • Guard column: none or Guard-Pak from Waters packed with the same material. • Temperature: Ambient • Mobile phase flow: 1.3 ml/min • Injection volume: 20µl • Wavelength: 350 nm • Eluent: Binary gradient (linear) mixture of A: KH2PO4 (28.4 g in 2000 ml de-mineralised water) and B: methanol (please see table 1 and figure 1). The eluent is filtered through a 0.45 µm filter and degassed before use.
Prior to HPLC analysis, the samples were filtered through a 0.45 µm filter or smaller, e.g. a sterile Sartorius Minisart 0.45 µm filter (#16555) or a Millipore Millex-GS 0.22 µm (#SBGS 0 25 SB) to remove the haze/precipitate normally formed during enzyme treatment. Normally, no dilution of the extract/sample was made before HPLC analysis.
For qualitative and semi-quantitative measurements, each of the standards was dissolved in 96% ethanol, and then mixed in a ratio and at a concentration which was within the range in the tobacco extract. For semi-quantification of the phenolic compounds in the tobacco extract, and as a measure of development in concentration of the various compounds contained in the extract, decrease in peak area relative to the peak area before addition of enzyme was used. As a measure of overall efficiency of the process, degree of reduction in total peak area of all peaks (not only the major ones) in the HPLC chromatogram with retention time Rt>3 min was used (named: "All peaks").
Unless otherwise indicated, the tobacco was extracted at a laboratory scale with water according to the following procedure: 1000 ml demineralised water is heated to 45°C. 30 g tobacco (approx. 25 g d.m.) is added and the mixture stirred by a magnetic bar and occasionally with a stick. After 15 minutes the tobacco residue is separated from the tobacco extract by vacuum filtration (Whatman glass micro fibre GF/F 11 cm). The filtered extract is then vacuum filtered at least once more or until it is completely clear. Yield was around 900 ml tobacco extract. […] No buffer was thus included in any of the trials. D.m. content of the extract was approximately 2.1%.
Tobacco extract (typically 50-100 ml) was poured into a glass beaker and a magnetic bar was added. No pH adjustments were made, and no buffer was added. The tobacco extract was heated to and controlled at 55°C during the entire enzyme treatment by means of a heating plate and a thermostat. Intensive submerse aeration was applied by blowing atmospheric air into the extract by means of a metal sinter (metal suction filter normally used for HPLC). The enzyme in question (TvL or PpL) was added to the desired concentration. Shortly after addition of laccase, the colour of the tobacco extract turned dark brown to black, and with time the liquor became turbid and a precipitate formed. The liquor was sampled with intervals for HPLC analysis.
Enzyme treatment: Surface aeration was used. TvL enzyme was added to the tobacco extract to a concentration of approximately 1.6 µg/ml. […] HPLC chromatograms of the tobacco extract before, during, and after enzyme treatment as well as chromatograms of the mixture of HPLC standards are shown in figure 6, 7, ,8, and 9.
Enzyme treatment: pH of the extract was adjusted with H2SO4 or NaOH to pH 4, pH 5, pH 6, or pH 7. The extract was kept at ambient temperature (approximately 20°C) during the entire enzyme treatment. Surface aeration was used. […]

[2] = molecular target: T2, laccase derived from Trametes villosa, TvL (Trametes villosa, UniProt Q99044); assay: Effect of laccase on tobacco constituents, UV/Vis spectra before and after treatment (Example 1); assay type: biochemical; conditions: 9 mM Na-acetate buffer pH 5.0; 4.8% Ethanol; 0.025 mg/ml of tobacco constituent; 0.016 mg/ml laccase; spectra 190-700 nm every 20 seconds for 5 minutes
T2 construct: purchased Novo Nordisk A/S
T2 sequence (Q99044 22-520): T1 sequence (Q99044 22-520)
Description: Tobacco constituents: Nicotine, Chlorogenic acid, Rutin and Scopoletin. Enzyme: Purified laccase derived from Trametes villosa, TvL. Apparatus: HP8452 UV/Vis diode array spectrophotometer, 1 cm quarts cuvette. Buffer: Sodium acetate (Merck)
10 mM acetate buffer was prepared from sodium acetate adjusted to pH 5.0 with sulphuric acid. Stock solution of 0.50 mg/ml in 96% ethanol was prepared of nicotine, chlorogenic acid, rutin, and scopoletin. A stock solution of 0.31 mg enzyme protein/ml of laccase in de-mineralised water was prepared. The HP diode array spectrophotometer was operated as per the manufacturer's instructions. A 1 cm quartz cuvette was used. As a blank was used 950µl buffer mixed with 50µl 96% ethanol. In a 1 cm quart cuvette was mixed 900µl 10 mM acetate buffer and 50µl of the stock solution of the compound in question. A spectrum of the "native" compound was recorded in the range 190-700 nm. 50µl of TvL stock solution was added and carefully mixed, and spectra in the range 190-700 nm were recorded every 20 seconds for 5 minutes.

[3] = 40 Min, approximately 1.6 µg/ml TvL at 55°C and pH 5.4
[4] = 40 Min, approximately 7.8µg/ml TvL at 55°C and pH 5.4
[5] = 80 Min, approximately 1.6 µg/ml TvL at 55°C and pH 5.4
[6] = 120 Min, approximately 1.6 µg/ml TvL at 55°C and pH 5.4

Structure (SMILES)	% Remaining (peak area) after various treatment times [1, 3]	% Remaining (peak area) after various treatment times [1, 4]	% Remaining (peak area) after various treatment times [1, 5]	% Remaining (peak area) after various treatment times [1, 6]	% Remaining (peak area) after 75 minutes ([1]; pH 4)	% Remaining (peak area) after 240 minutes ([1]; pH 4)	% Remaining (peak area) after 75 minutes ([1]; pH 5)	% Remaining (peak area) after 240 minutes ([1]; pH 5)	% Remaining (peak area) after 75 minutes ([1]; pH 6)	% Remaining (peak area) after 240 minutes ([1]; pH 6)	% Remaining (peak area) after 75 minutes ([1]; pH 7)	% Remaining (peak area) after 240 minutes ([1]; pH 7)	reduction in the area of the peaks (HPLC) following enzyme treatment [1]	spectral changes (peak position and peak relative height) [2]
O=C(C=Cc1ccc(O)c(O)c1)OC1CC(O)(C(=O)O)CC(O)C1O (stereo not drawn) [CA, 3-[[3-(3,4-Dihydroxyphenyl)-1-oxo-2-propenyl]oxy]1,4,5-trihydroxycyclohexanecarboxylic acid]	23%	0%	0%	0%	5%	0%	11%	0%	22%	0%	94%	85%	significant reduction	
COc1cc2ccc(=O)oc2cc1O [S, 7-Hydroxy-6-methoxy-2H-1-benzopyran-2-one]	82%	3%	30%	12%	89%	58%	94%	12%	96%	6%	100%	112%	significant reduction	significant spectral changes
